ChEMBL document CHEMBL3885861, “Open TG-GATES”

Organism: Rattus norvegicus
Assay: Open TG-GATES - Regimen: Single
Assay type: toxicity, organism-based, Sprague-Dawley
Set-up: regimen Single, gender Male, age 6 weeks
Details: in vivo, po, 30 mg/kg, route gavage, dose level High; for APTT / Bas / Eos / Fbg / Hb / Ht / Lym / MCH / MCHC / MCV / Mono / Neu / PT / Plat / RBC / Ret / WBC: tissue Blood; for KIDNEY_L / KIDNEY_R / KIDNEY_TOTAL: tissue Kidney; for LIVER: tissue Liver; for A/G / ALP / ALT / AST / BUN / CRE / Ca / Cl / DBIL / GLC / IP / K / LDH / Na / PL / RALB / TBIL / TC / TG / TP / gamma-GTP: tissue Plasma

CN(C)CCC(c1ccc(Cl)cc1)c1ccccn1 (configuration not stated) [CHLORPHENIRAMINE]
TERMINAL_BW (3 h): 197.2 g
APTT (3 h): 16.3 s
Bas (3 h): 0%
Eos (3 h): 0.8%
Fbg (3 h): 287.6 mg/dL
Hb (3 h): 13.5 g/dL
Ht (3 h): 42.6%
Lym (3 h): 74.2%
MCH (3 h): 21.2 pg
MCHC (3 h): 31.8%
MCV (3 h): 66.5 fL
Mono (3 h): 3.4%
Neu (3 h): 21%
PT (3 h): 14.8 s
Plat (3 h): 128.4 x10_4/uL
RBC (3 h): 640.8 x10_4/ul
Ret (3 h): 10.2%
WBC (3 h): 67.1 x10_2/uL
KIDNEY_L (3 h): 0.9 g
KIDNEY_R (3 h): 0.9 g
KIDNEY_TOTAL (3 h): 1.7 g
LIVER (3 h): 9 g
A/G (3 h): 0.9
ALP (3 h): 1548.6 IU/L
ALT (3 h): 43.6 IU/L
AST (3 h): 79.2 IU/L
BUN (3 h): 8.4 mg/dL
CRE (3 h): 0.1 mg/dL
Ca (3 h): 10.5 mg/dL
Cl (3 h): 108.8 meq/L
DBIL (3 h): 0.008 mg/dL
GLC (3 h): 183.6 mg/dL
IP (3 h): 10 mg/dL
K (3 h): 4.1 meq/L
LDH (3 h): 139.4 IU/L
Na (3 h): 143.4 meq/L
PL (3 h): 146.6 mg/dL
RALB (3 h): 2.6 g/dL
TBIL (3 h): 0.046 mg/dL
TC (3 h): 79 mg/dL
TG (3 h): 59 mg/dL
TP (3 h): 5.5 g/dL
gamma-GTP (3 h): 1.2 IU/L
TERMINAL_BW (6 h): 191.8 g
APTT (6 h): 24.9 s
Bas (6 h): 0%
Eos (6 h): 0.8%
Fbg (6 h): 302 mg/dL
Hb (6 h): 13.8 g/dL
Ht (6 h): 42.4%
Lym (6 h): 73.2%
MCH (6 h): 20.9 pg
MCHC (6 h): 32.5%
MCV (6 h): 64.2 fL
Mono (6 h): 3.4%
Neu (6 h): 21.8%
PT (6 h): 14.7 s
Plat (6 h): 130.7 x10_4/uL
RBC (6 h): 659.8 x10_4/ul
Ret (6 h): 8.9%
WBC (6 h): 76.3 x10_2/uL
KIDNEY_L (6 h): 0.8 g
KIDNEY_R (6 h): 0.8 g
KIDNEY_TOTAL (6 h): 1.6 g
LIVER (6 h): 8.2 g
A/G (6 h): 0.9
ALP (6 h): 1166.8 IU/L
ALT (6 h): 37.4 IU/L
AST (6 h): 72.4 IU/L
BUN (6 h): 7.6 mg/dL
CRE (6 h): 0.1 mg/dL
Ca (6 h): 10.5 mg/dL
Cl (6 h): 108 meq/L
DBIL (6 h): 0.006 mg/dL
GLC (6 h): 181 mg/dL
IP (6 h): 10.2 mg/dL
K (6 h): 4.4 meq/L
LDH (6 h): 126 IU/L
Na (6 h): 142.4 meq/L
PL (6 h): 138.4 mg/dL
RALB (6 h): 2.5 g/dL
TBIL (6 h): 0.042 mg/dL
TC (6 h): 83.6 mg/dL
TG (6 h): 35 mg/dL
TP (6 h): 5.4 g/dL
gamma-GTP (6 h): 1.4 IU/L
TERMINAL_BW (9 h): 189.4 g
APTT (9 h): 19.9 s
Bas (9 h): 0%
Eos (9 h): 1%
Fbg (9 h): 317 mg/dL
Hb (9 h): 13.6 g/dL
Ht (9 h): 42.2%
Lym (9 h): 73.8%
MCH (9 h): 20.7 pg
MCHC (9 h): 32.3%
MCV (9 h): 64.2 fL
Mono (9 h): 2.6%
Neu (9 h): 22.2%
PT (9 h): 14.9 s
Plat (9 h): 115 x10_4/uL
RBC (9 h): 656.4 x10_4/ul
Ret (9 h): 9.1%
WBC (9 h): 68.4 x10_2/uL
KIDNEY_L (9 h): 0.9 g
KIDNEY_R (9 h): 0.9 g
KIDNEY_TOTAL (9 h): 1.7 g
LIVER (9 h): 8 g
A/G (9 h): 0.9
ALP (9 h): 1297.6 IU/L
ALT (9 h): 35.2 IU/L
AST (9 h): 71.8 IU/L
BUN (9 h): 7.4 mg/dL
CRE (9 h): 0.1 mg/dL
Ca (9 h): 10.2 mg/dL
Cl (9 h): 106.4 meq/L
DBIL (9 h): 0.008 mg/dL
GLC (9 h): 171.8 mg/dL
IP (9 h): 10.4 mg/dL
K (9 h): 4 meq/L
LDH (9 h): 95 IU/L
Na (9 h): 142.4 meq/L
PL (9 h): 145 mg/dL
RALB (9 h): 2.5 g/dL
TBIL (9 h): 0.056 mg/dL
TC (9 h): 84.2 mg/dL
TG (9 h): 45 mg/dL
TP (9 h): 5.4 g/dL
gamma-GTP (9 h): 1.2 IU/L
TERMINAL_BW (24 h): 198.3 g
APTT (24 h): 17 s
Bas (24 h): 0.2%
Eos (24 h): 1.2%
Fbg (24 h): 324.6 mg/dL
Hb (24 h): 13.6 g/dL
Ht (24 h): 41.8%
Lym (24 h): 79.8%
MCH (24 h): 20.8 pg
MCHC (24 h): 32.6%
MCV (24 h): 63.8 fL
Mono (24 h): 2.6%
Neu (24 h): 15.6%
PT (24 h): 14.8 s
Plat (24 h): 114.6 x10_4/uL
RBC (24 h): 655.4 x10_4/ul
Ret (24 h): 7.8%
WBC (24 h): 93.8 x10_2/uL
KIDNEY_L (24 h): 0.9 g
KIDNEY_R (24 h): 0.9 g
KIDNEY_TOTAL (24 h): 1.8 g
LIVER (24 h): 8 g
A/G (24 h): 0.9
ALP (24 h): 1572.4 IU/L
ALT (24 h): 45.8 IU/L
AST (24 h): 78.4 IU/L
BUN (24 h): 12.4 mg/dL
CRE (24 h): 0.2 mg/dL
Ca (24 h): 10.8 mg/dL
Cl (24 h): 109 meq/L
DBIL (24 h): 0.012 mg/dL
GLC (24 h): 185 mg/dL
IP (24 h): 7.9 mg/dL
K (24 h): 4.6 meq/L
LDH (24 h): 120.4 IU/L
Na (24 h): 142.4 meq/L
PL (24 h): 145.4 mg/dL
RALB (24 h): 2.6 g/dL
TBIL (24 h): 0.046 mg/dL
TC (24 h): 89.4 mg/dL
TG (24 h): 41.4 mg/dL
TP (24 h): 5.6 g/dL
gamma-GTP (24 h): 1.4 IU/L
